Tests used:
Experiment in all cases: Agrobacterium transformation, transformants per selection plate with ABA in preparation/recovery/selection media
Type in all cases: cell-based
[1] = system: P. rigida Hybrid embryogenic cell line H1
Excerpt: (§1) Seven loblolly pine cell lines or hybrid cell lines from seven widely diverse genetic backgrounds were used in this experiment. To prepare for gene transfer using Agrobacterium, fabric supports were sterilized by autoclaving and placed in a sterile Buchner funnel, and one to five milliliters of embryogenic suspension was pipetted onto each support such that the embryogenic tissue was evenly distributed over its surface. Following this the liquid medium was suctioned from the tissues and each support bearing the embryogenic tissue was placed on gelled medium for inoculation by Agrobacterium. In this case the medium used was the same as the preparation medium described in Example 1 above, except that the medium, used here for preparation and co-cultivation of the cells, contained ABA at 0, 10, or 30 mg/L as an experimental condition. Genes were then introduced into the plant material by co-cultivation with Agrobacterium(Wenck et al. 1999). Specifically, gene constructs containing a reporter gene and a selectable marker were introduced into Agrobacterium tumefaciens strain EHA105 with the virulence-enhancing plasmid pTOK47 (Wenck et al. 1999), by techniques well known to those skilled in the art, and virulence was then induced with administration of acetosyringone by commonly used techniques, well known to those skilled in the art, whereupon the induced Agrobacterium was dripped over the plant material and these were co-cultivated in the dark at 23°±2° C. for approximately 24-72 hours. Those skilled in the art recognize that many different gene constructs, plasmids, strains, media, and co-cultivation times and protocols would be suitable for use in the present method.
(§2) Following co-cultivation, cells were re-suspended into fresh DCR4 liquid wash medium (Table 2) containing eradicants such as 200-400 mg/L TIMENTIN® antibiotic. The DCR4 liquid wash medium was contained in sterile “baby food” jars with MAGENTA® aerated lids, conventional beakers, or multi-well plates. Resuspension was initiated by grasping the membrane support bearing the infected cells, using forceps, and rolling or folding it so that it could be taken up and placed into the liquid in the wash container. The liquid was then agitated to get the cells into suspension, and the membrane support was scraped with sterile forceps if cells appeared to be adhering to it. Once the cells were in suspension, the membrane was removed with sterile forceps.
(§3) Following this wash step, the cells were plated onto fresh sterile support membranes of the same type as used in the previous step, again by placing the fresh sterile support membranes in a sterile Buchner funnel, pipetting the suspension of plant cells onto the membranes, and again suctioning the liquid medium from the tissues using a mild vacuum. The cells were again resuspended in and cultured in fresh sterile wash medium by agitating the membrane bearing the cells in the liquid, again removing cells that appeared to be adhering by gently scraping with forceps. The cells were then re-plated on fresh membrane supports over Buchner funnels. This procedure was repeated twice before the cells were again plated on supports as described above.
(§4) Supports bearing approximately 0.1 g of embryogenic tissue were divided onto recovery media (having the same formulation as the maintenance medium except for the addition of 400 mg/L TIMENTIN® antibiotic) either containing or lacking ABA. […] Concentrations of ABA used in all these media were 0, 10, and 30 mg/l.
(§5) Cells were maintained on the selection media, with transfer of the polyester support membranes to fresh selection media of the same composition, every two weeks for a total of eight weeks of selection. Cells from actively growing sublines from selection were examined using stereomicroscopes for the expression of the visual marker gene uidA at the conclusion of the selection period. […]

[2] = system: P. taeda embryogenic cell line P1
Excerpt: as §1, §2, §3, §4, §5

[3] = system: P. taeda embryogenic cell line P2
Excerpt: as §1, §2, §3, §4, §5

[4] = system: P. taeda embryogenic cell line P3
Excerpt: as §1, §2, §3, §4, §5

[5] = system: P. taeda embryogenic cell line P4
Excerpt: as §1, §2, §3, §4, §5

[6] = system: P. taeda embryogenic cell line P5
Excerpt: as §1, §2, §3, §4, §5

[7] = system: P. taeda embryogenic cell line P6
Excerpt: as §1, §2, §3, §4, §5

[8] = ABA mg/l in preparation/recovery/selection medium 0/0/10
[9] = ABA mg/l in preparation/recovery/selection medium 0/0/30
[10] = ABA mg/l in preparation/recovery/selection medium 0/10/10
[11] = ABA mg/l in preparation/recovery/selection medium 0/10/30
[12] = ABA mg/l in preparation/recovery/selection medium 0/30/30
[13] = ABA mg/l in preparation/recovery/selection medium 10/10/10
[14] = ABA mg/l in preparation/recovery/selection medium 30/10/10
[15] = ABA mg/l in preparation/recovery/selection medium 30/30/30

CC1=CC(=O)CC(C)(C)[C@@]1(O)/C=C/C(C)=C\C(=O)O [ABA, abscisic acid]
Average (n = 12) Number of Transformants observed per Selection Plate [1, 8]: 27.0 +/− 11.2
Average (n = 12) Number of Transformants observed per Selection Plate [1, 9]: 21.1 +/− 6.5
Average (n = 12) Number of Transformants observed per Selection Plate [1, 10]: 19.0 +/− 6.5
Average (n = 12) Number of Transformants observed per Selection Plate [1, 11]: 21.6 +/− 8.6
Average (n = 12) Number of Transformants observed per Selection Plate [1, 12]: 15.1 +/− 4.9
Average (n = 12) Number of Transformants observed per Selection Plate [1, 13]: 21.9 +/− 8.4
Average (n = 12) Number of Transformants observed per Selection Plate [1, 14]: 22.9 +/− 10.1
Average (n = 12) Number of Transformants observed per Selection Plate [1, 15]: 21.8 +/− 9.9
Average (n = 12) Number of Transformants observed per Selection Plate [2, 8]: 0.3 +/− 0.9
Average (n = 12) Number of Transformants observed per Selection Plate [2, 9]: 0.0 +/− 0.0
Average (n = 12) Number of Transformants observed per Selection Plate [2, 10]: 0.0 +/− 0.0
Average (n = 12) Number of Transformants observed per Selection Plate [2, 11]: 0.1 +/− 0.3
Average (n = 12) Number of Transformants observed per Selection Plate [2, 12]: 0.8 +/− 0.6
Average (n = 12) Number of Transformants observed per Selection Plate [2, 13]: 1.3 +/− 0.9
Average (n = 12) Number of Transformants observed per Selection Plate [2, 14]: 0.3 +/− 0.5
Average (n = 12) Number of Transformants observed per Selection Plate [2, 15]: 0.4 +/− 0.8
Average (n = 12) Number of Transformants observed per Selection Plate [3, 8]: 5.8 +/− 2.3
Average (n = 12) Number of Transformants observed per Selection Plate [3, 9]: 8.8 +/− 4.8
Average (n = 12) Number of Transformants observed per Selection Plate [3, 10]: 1.0 +/− 1.0
Average (n = 12) Number of Transformants observed per Selection Plate [3, 11]: 0.3 +/− 0.5
Average (n = 12) Number of Transformants observed per Selection Plate [3, 12]: 5.2 +/− 6.1
Average (n = 12) Number of Transformants observed per Selection Plate [3, 13]: 10.0
Average (n = 12) Number of Transformants observed per Selection Plate [3, 14]: 5.9 +/− 2.4
Average (n = 12) Number of Transformants observed per Selection Plate [3, 15]: 5.3 +/− 2.5
Average (n = 12) Number of Transformants observed per Selection Plate [4, 8]: 21.7 +/− 3.6
Average (n = 12) Number of Transformants observed per Selection Plate [4, 9]: 22.3 +/− 5.4
Average (n = 12) Number of Transformants observed per Selection Plate [4, 10]: 23.3 +/− 2.8
Average (n = 12) Number of Transformants observed per Selection Plate [4, 11]: 26.0 +/− 6.9
Average (n = 12) Number of Transformants observed per Selection Plate [4, 12]: 18.6 +/− 5.1
Average (n = 12) Number of Transformants observed per Selection Plate [4, 13]: 22.6 +/− 4.3
Average (n = 12) Number of Transformants observed per Selection Plate [4, 14]: 21.6 +/− 3.6
Average (n = 12) Number of Transformants observed per Selection Plate [4, 15]: 21.1 +/− 2.3
Average (n = 12) Number of Transformants observed per Selection Plate [5, 8]: 27.5 +/− 11.4
Average (n = 12) Number of Transformants observed per Selection Plate [5, 9]: 34.9 +/− 9.7
Average (n = 12) Number of Transformants observed per Selection Plate [5, 10]: 28.8 +/− 11.6
Average (n = 12) Number of Transformants observed per Selection Plate [5, 11]: 30.9 +/− 9.3
Average (n = 12) Number of Transformants observed per Selection Plate [5, 12]: 28.6 +/− 7.6
Average (n = 12) Number of Transformants observed per Selection Plate [5, 13]: 27.8 +/− 9.0
Average (n = 12) Number of Transformants observed per Selection Plate [5, 14]: 22.7 +/− 7.0
Average (n = 12) Number of Transformants observed per Selection Plate [5, 15]: 27.3 +/− 7.4
Average (n = 12) Number of Transformants observed per Selection Plate [6, 8]: 18.1 +/− 4.0
Average (n = 12) Number of Transformants observed per Selection Plate [6, 9]: 5.5 +/− 3.1
Average (n = 12) Number of Transformants observed per Selection Plate [6, 10]: 2.4 +/− 2.0
Average (n = 12) Number of Transformants observed per Selection Plate [6, 11]: 7.2 +/− 2.1
Average (n = 12) Number of Transformants observed per Selection Plate [6, 12]: 3.3 +/− 2.1
Average (n = 12) Number of Transformants observed per Selection Plate [6, 13]: 10.3 +/− 2.4
Average (n = 12) Number of Transformants observed per Selection Plate [6, 14]: 11.3 +/− 2.4
Average (n = 12) Number of Transformants observed per Selection Plate [6, 15]: 14.3 +/− 3.5
Average (n = 12) Number of Transformants observed per Selection Plate [7, 8]: 3.9 +/− 1.5
Average (n = 12) Number of Transformants observed per Selection Plate [7, 9]: 3.3 +/− 2.8
Average (n = 12) Number of Transformants observed per Selection Plate [7, 10]: 3.2 +/− 1.4
Average (n = 12) Number of Transformants observed per Selection Plate [7, 11]: 3.2 +/− 1.5
Average (n = 12) Number of Transformants observed per Selection Plate [7, 12]: 2.3 +/− 2.6
Average (n = 12) Number of Transformants observed per Selection Plate [7, 13]: 4.5 +/− 1.3
Average (n = 12) Number of Transformants observed per Selection Plate [7, 14]: 3.1 +/− 2.3
Average (n = 12) Number of Transformants observed per Selection Plate [7, 15]: 2.3 +/− 1.1

Source: US6964870B2, “Enhanced selection of genetically modified pine embryogenic tissue” (MeadWestvaco Corporation, priority 2000, dated 2005)
